Earlier results on one compound are cited in patent US10449180B2, “Macrolide particulates, methods for preparation, and medical devices associated therewith” (Surmodics, Inc., priority 2013, dated 2019).

Consider `CO[C@H]1C[C@@H]2CC[C@@H](C)[C@@](O)(O2)C(=O)C(=O)N2CCCC[C@H]2C(=O)O[C@H]([C@H](C)C[C@@H]2CC[C@@H](O)[C@H](OC)C2)CC(=O)[C@H](C)/C=C(\C)[C@@H](O)[C@@H](OC)C(=O)[C@H](C)C[C@H](C)/C=C/C=C/C=C/1C` [Rapamycin, rapamycin], for which the “solubility in N,N-dimethylformamide” value (N,N-dimethylformamide) is given as “soluble”. For the same compound, the solubility in acetone entry (acetone) was “soluble”. For the same compound, the solubility in ether result (ether) is recorded as “soluble”. In addition, the solubility in water result (water) is “insoluble”.
